Data set [1] can be described thus: acute toxicity, rats (Wister). Conditions: rat, in vivo. The text has this:
(§1) Nicardipine hydrochloride is a low toxicity compound, and this fact is confirmed by acute toxicity examination experiment.

The nature of data set [2]: acute toxicity, mice (ICR). The conditions noted are these: mouse, in vivo.
From the text: as §1

In a further data set the test system is mice, rats, dog. Nature of the data set: acute toxicity examination (overall statement). Conditions: in vivo.
From the text: as §1

The subject of the next data set is dog (mongrel). Nature of the data set: acute toxicity, dog (mongrel). The data set is classed as in vivo. The conditions noted are these: p.o.
From the text: as §1

Data set [3] in a line: acute toxicity, dog (mongrel). The conditions noted are these: in vivo, iv, only a range in parentheses printed. Type of data set: in vivo.
From the text: as §1

Data set [4] deals with cholesterol levels in the serum. Nature of the data set: Effect on cholesterol levels in the serum (hypercholesterolemia rats). The conditions noted are these: for HDL chol. / HDL chol. / LDL + VLDL chol. / LDL + VLDL chol. / T. chol. (total cholesterol): oral; for effect on HDL cholesterol (words) / effect on total cholesterol in the serum (words): rat, in vivo. Type of data set: in vivo, Male Sprague-Dawley rats. On the procedure: Male Sprague-Dawley rats (JCL®, Nippon Clea Co. Ltd., Tokyo, Japan) weighing 90-100 g were fed semipurified diet containing 10% coconut oil, 1.5% cholesterol and 0.5% cholic acid. Three days after the start of feeding, the rats are allocated at random by the body weight to multiple groups each consisting 6-8 rats. On day 4 through 7, the drug suspension in 0.5% methylcellulose was orally given daily. […] Following the final dose, the rats were fasted overnight (approximately 16 hours). […] Serum was obtained by centrifugation at 1,600 xg for 15 min and stored at 4° C. in plastic tubes. The amount of total cholesterol and HDL cholesterol in the serum were determined. The determination of the total cholesterol was practiced by the method described in Schettler, G & Nussel; "Arbeitsmed. Sozialmed. Praventivmed." 10, 25 (1975) and the determination of HDL cholesterol was practiced by the method described in T. T. Ishikawa et al; "Lipids", 11, 628 (1976).

Data set [5] has the same test system. As to the kind of experiment: Effect on cholesterol levels in the serum (normal rats). Type of data set: in vivo. Conditions: oral.
Data set [6] is described as follows: acute toxicity, rats (S.D.). Conditions: rat, in vivo.
From the text: as §1

Data set [7] deals with aortic smooth muscle cell. Nature of the data set: 12-HETE-associated aortic smooth muscle cell migration, filter membrane technique in modified Boyden chambers. The data set is classed as cell-based. The conditions noted are these: 6×10^-15 g/ml 12-HETE, 37° C. The text has this:
The effect of nicardipine on 12-HETE-associated aortic smooth muscle cell migration can be examined by measuring the migration of aortic smooth muscle cell by filter membrane technique in modified Boyden chambers as follows:
5×10^5 of the smooth muscle cells were suspended in Ca^2+ -containing culture medium supplemented with 5% calf serum containing various concentration of nicardipine. Control cultures contained the same volume, a final concentration of 1% (v/v), of […]. The suspensions of the smooth muscle cells were placed in the upper compartment of the chamber. The lower compartment of the chamber contained the same culture medium supplemented with 6×10^-15 g/ml of 12-HETE and 5% calf serum containing no nicardipine. The cells was incubated at 37° C. As control, medium with the same concentration of solvent (1% ethanol) containing no 12-HETE was used. Smooth muscle cell migration was quantitated microscopically by counting the number of cells that migrated into the filter. In each experiment, 10 high-power fields in 5 replicate cultures were examined to determine the number of cells that had migrated into the filers. Cell migration was expressed as cells/10 HPF (high-power fields) in FIG. 1.

Setting [8] is: hypercholesterolemia rats, 10 mg/kg.
Where [9] appears, read: hypercholesterolemia rats, 30 mg/kg.
Where [10] appears, read: hypercholesterolemia rats, 100 mg/kg.
Where [11] appears, read: listed as nicardipine hydrochloride.
The mark [12] stands for this setting: hypercholesterolemia rats, 50 mg/kg.
The mark [13] stands for this setting: hypercholesterolemia rats, 200 mg/kg.

Counter-ions that a name gives are not always drawn.

Broadly, the LD50 is the dose expected to kill half of the subjects tested. For the compound `COC(=O)C1=C(C)NC(C)=C(C(=O)OCCN(C)Cc2ccccc2)C1c1cccc([N+](=O)[O-])c1` (centres unmarked) [Nicardipine hydrochloride], the LD50 in data set [1] (iv, rats (Wister) female) came out at 17.2 mg/kg; in [1] (iv, rats (Wister) male) it was 15.5 mg/kg; in [1] (po, rats (Wister) female) it was 184 mg/kg; in [1] (po, rats (Wister) male) it was 187 mg/kg; in data set [1] (sc, rats (Wister) female), 606 mg/kg; in data set [1] (sc, rats (Wister) male), 677 mg/kg. Further, the LD50 was 19.9 mg/kg in data set [2] (iv, mice (ICR) female); 650 mg/kg in data set [2] (po, mice (ICR) female); 634 mg/kg in data set [2] (po, mice (ICR) male); 710 mg/kg in [2] (sc, mice (ICR) female); 540 mg/kg in data set [2] (sc, mice (ICR) male); 5 to 8.1 mg/kg in data set [3]. The LD50 in data set [6] (iv, rats (S.D.) female) was found to be 25 mg/kg; in data set [6] (iv, rats (S.D.) male) it was 18.1 mg/kg; in data set [6] (po, rats (S.D.) female) it was 557 mg/kg; in data set [6] (po, rats (S.D.) male), 643 mg/kg. Besides, the “acute toxicity” value with mice, rats, dog is on record as “low toxicity”. Besides, in the data set with dog (mongrel), the MLD is given as greater than 60 mg/kg. Moreover, the “effect on LDL chol” value in data set [4] (hypercholesterolemia rats) was “reduces remarkably LDL chol”. Besides, the HDL chol. in data set [4] (setting [8]) was found to be 27.0 ± 1.8 mg/dL; in data set [4] (setting [9]), 28.0 ± 0.5 mg/dL; in [4] (setting [10]), 47.0 ± 1.8 mg/dL; in [5] (10 mg/kg), 29.6 ± 1.4 mg/dL; in data set [5] (30 mg/kg), 37.2 ± 2.7 mg/dL; in [5] (100 mg/kg), 39.8 ± 4.3 mg/dL. In addition, the “HDL chol. / LDL + VLDL chol.” value is reported as 0.090 in [4] (setting [8]); 0.067 in data set [4] (setting [9]); 0.250 in [4] (setting [10]); 3.020 in data set [5] (10 mg/kg); 10.941 in data set [5] (30 mg/kg); 14.214 in [5] (100 mg/kg). The “LDL + VLDL chol.” value in data set [4] (setting [8]) came to 299.4 ± 52.8 mg/dL; in [4] (setting [9]), 420.6 ± 53.2 mg/dL; in data set [4] (setting [10]), 188.0 ± 26.4 mg/dL; in data set [5] (10 mg/kg), 9.8 ± 1.9 mg/dL; in [5] (30 mg/kg), 3.4 ± 1.6 mg/dL; in data set [5] (100 mg/kg), 2.8 ± 1.2 mg/dL. Moreover, the “T. chol. (total cholesterol)” value was determined as 326.4 ± 52.0 mg/dL in [4] (setting [8]); 448.6 ± 52.8 mg/dL in data set [4] (setting [9]); 246.0 ± 24.6 mg/dL in data set [4] (setting [10]); 39.4 ± 2.0 mg/dL in data set [5] (10 mg/kg); 41.3 ± 4.7 mg/dL in [5] (30 mg/kg); 40.8 ± 5.9 mg/dL in data set [5] (100 mg/kg). Further, in data set [4] (setting [11]), the “effect on HDL cholesterol (words)” value is on record as “increases selectively HDL chol”. The “effect on total cholesterol in the serum (words)” value in [4] (setting [11]) was “reduce the amount of total cholesterol in the serum”.
For the compound `CCOC(=O)C(C)(C)Oc1ccc(Cl)cc1` [clofibrate], the HDL chol. in data set [4] (setting [12]) was determined as 13.8 ± 1.0 mg/dL; in data set [4] (setting [10]), 21.0 ± 2.5 mg/dL; in data set [4] (setting [13]), 19.3 ± 2.8 mg/dL; in data set [5] (50 mg/kg) it was 26.5 ± 2.5 mg/dL; in data set [5] (100 mg/kg), 30.3 ± 3.1 mg/dL; in [5] (200 mg/kg), 22.8 ± 2.7 mg/dL. The “HDL chol. / LDL + VLDL chol.” value in data set [4] (setting [12]) was found to be 0.036; in [4] (setting [10]), 0.100; in data set [4] (setting [13]), 0.065; in data set [5] (50 mg/kg), 1.828; in [5] (100 mg/kg) it was 3.258; in [5] (200 mg/kg), 1.664. The “LDL + VLDL chol.” value in data set [4] (setting [12]) turned out to be 379.6 ± 92.6 mg/dL; in data set [4] (setting [10]), 210.4 ± 55.8 mg/dL; in data set [4] (setting [13]), 298.0 ± 66.2 mg/dL; in [5] (50 mg/kg), 14.5 ± 1.0 mg/dL; in data set [5] (100 mg/kg), 9.3 ± 1.5 mg/dL; in [5] (200 mg/kg) it was 13.7 ± 2.1 mg/dL. Moreover, the “T. chol. (total cholesterol)” value in [4] (setting [12]) was 412.0 ± 77.8 mg/dL; in data set [4] (setting [10]) it was 231.0 ± 54.2 mg/dL; in [4] (setting [13]), 317.4 ± 64.4 mg/dL; in [5] (50 mg/kg) it was 42.7 ± 2.3 mg/dL; in [5] (100 mg/kg), 39.7 ± 2.7 mg/dL; in [5] (200 mg/kg) it was 36.5 ± 4.4 mg/dL.
For the compound `COC(=O)C1=C(C)NC(C)=C(C(=O)OCCN(C)Cc2ccccc2)C1c1cccc([N+](=O)[O-])c1` (centres unmarked) [nicardipine], in data set [4], the “effect on HDL cholesterol (words)” value is “elevating high density lipoprotein (HDL) selectivity” and the “effect on total cholesterol in the serum (words)” value was “reducing cholesterol level increased in the serum”. In [7], the “inhibition of 12-HETE-associated aortic smooth muscle cell migration” value is given as “inhibits 12-HETE-associated aortic smooth muscle cell migration (aortic smooth muscle cell migration induced by 12-L-hydroxy-5,8,10,14-eicosotetraenoic acid) significantly”.
For the compound `COc1ccc(Cc2nccc3cc(OC)c(OC)cc23)cc1OC` [papaverine], the LD50 in [1] (iv, rats (Wister) male) is 13.3 mg/kg; in data set [2] (iv, mice (ICR) male), 27 mg/kg.
